target: T1, Myeloperoxidase (Homo sapiens, UniProt P05164); test: MPO Activity Assay; settings: pH 7.4
T1 sequence (P05164 whole entry): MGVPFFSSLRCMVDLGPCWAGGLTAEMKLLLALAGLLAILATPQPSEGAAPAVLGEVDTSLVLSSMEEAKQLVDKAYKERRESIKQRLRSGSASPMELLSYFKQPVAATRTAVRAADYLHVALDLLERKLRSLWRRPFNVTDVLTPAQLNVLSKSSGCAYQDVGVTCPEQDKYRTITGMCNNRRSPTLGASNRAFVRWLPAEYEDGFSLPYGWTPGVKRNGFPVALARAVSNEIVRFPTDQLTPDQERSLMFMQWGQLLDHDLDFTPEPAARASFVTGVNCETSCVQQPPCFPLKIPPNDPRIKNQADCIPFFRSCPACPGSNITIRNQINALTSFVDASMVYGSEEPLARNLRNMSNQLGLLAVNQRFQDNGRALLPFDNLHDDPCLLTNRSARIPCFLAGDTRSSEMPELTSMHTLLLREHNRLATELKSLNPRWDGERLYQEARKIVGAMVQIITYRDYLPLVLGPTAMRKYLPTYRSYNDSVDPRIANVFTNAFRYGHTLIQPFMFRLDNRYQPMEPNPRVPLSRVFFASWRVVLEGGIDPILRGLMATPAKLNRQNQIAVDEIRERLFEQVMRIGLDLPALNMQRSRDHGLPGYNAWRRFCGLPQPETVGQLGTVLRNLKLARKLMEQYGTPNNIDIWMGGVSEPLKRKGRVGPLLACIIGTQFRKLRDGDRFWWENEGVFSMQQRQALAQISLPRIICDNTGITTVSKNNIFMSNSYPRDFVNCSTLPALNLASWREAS
Experimental: Assay mixtures (100 µL) contained 50 mM NaPi (pH 7.4), 150 mM NaCl, 1 mM DTPA, 2% DMSO, the indicated concentrations of H2O2, and Amplex Red. The reactions were initiated by the addition of 100 pM MPO. The fluorescent changes were measured at 530 (excitation) and 580 nm (emission).

SMILES | Ki
CCOC(C)Cn1c(=S)[nH]c(=O)c2[nH]cnc21 (stereo not drawn) [3‐(2‐ethoxypropyl)‐2‐sulfanylidene‐1,9‐ dihydropurin‐6‐one (A)] | 413 nM
CCO[C@H](C)Cn1c(=S)[nH]c(=O)c2[nH]cnc21 [3‐[(2R)‐2‐ethoxypropyl]‐2‐sulfanylidene‐1,9‐ dihydropurin‐6‐one (C)] | 546 nM
CCO[C@@H](C)Cn1c(=S)[nH]c(=O)c2[nH]cnc21 [3‐[(2S)‐2‐ethoxypropyl]‐2‐sulfanylidene‐1,9‐ dihydropurin‐6‐one (D)] | 429 nM
